Test results as given in patent publication US10375956B2, “Herbicidally active 2-(substituted-phenyl)-cyclopentane-1,3-dione compounds and derivatives thereof” (Syngenta Limited, priority 2013, dated 2019).

Legend:
Assay type in all cases: in vivo
[1] = system: Digitaria sanguinalis (DIGSA); experiment: Test 2 glasshouse assay (IF50 formulation, X-77), post-emergence herbicidal activity; settings: 360 h, 15 DAA, visual score, read-out: Post-emergence herbicidal activity (percentage phytotoxicity) DIGSA; for pest or weed control at 250 g/ha: application rate 250 g/ha; for pest or weed control at 30 g/ha: application rate 30 g/ha
Method: (§1) Seeds of a variety of monocotyledonous and dicotyledonous test plants are sown in standard soil in pots. The plants are cultivated for one day (for pre-emergence) or for about 12 days (for post-emergence) under controlled conditions in a glasshouse (warm climate species at 24/18° C., cool climate species at 20/16° C., both at day/night; 16 hours light; 65% humidity).
(§2) An “instant formulation”, known as the “IF50”, containing 50 g/liter (i.e. 5% w/v) of the “technical” (i.e. unformulated) active ingredient is prepared by dissolving the active ingredient in a mixture of organic solvents and emulsifier, details of which are provided in the Table below. This IF50 is then mixed with a small, variable amount of acetone to aid dissolution, before addition of a 0.2% v/v aqueous solution of the adjuvant X-77 (which is a mixture of alkyl aryl polyoxyethylene glycols and free fatty acids in isopropanol, CAS Registry number 11097-66-8), as the aqueous diluent, to form an aqueous spray solution which contains a predetermined concentration of the active ingredient (which varies depending on the application rate of the active ingredient to the plants) and 0.2% v/v of the adjuvant X-77. This aqueous spray solution is then sprayed onto the plants, after one day's cultivation (for pre-emergence), or after about 12 days' cultivation (range=10-13 days) (for post-emergence).
(§3) The test plants are then grown on, in a glasshouse (greenhouse) under controlled conditions (warm climate species at 24/18° C., cool climate species at 20/16° C., both at day/night; 16 hours light; 65% humidity) and are watered twice daily. 15 days after application of the test herbicide (15DAA) (for post-emergence), and 20 days after application of the test herbicide (20DAA) (for pre-emergence), the test plants are evaluated visually, and an assessed percentage phytotoxicity score is given for each herbicidal application on each plant species (with 100%=total damage to plant; 0%=no damage to plant).
(§4) Warm climate (“warm season”) grassy monocotyledonous weeds: Setaria faberi (SETFA), Panicum miliaceum (PANMI), Sorghum vulgare Pers. (SORVU) (or Sorghum bicolor (L) Moench ssp. Bicolor), Digitaria sanguinalis (DIGSA), Echinochloa crus-galli (ECHCG), and Brachiaria plantaginea (BRAPL).

[2] = system: Echinochloa crus-galli (ECHCG); experiment: as above; settings: 360 h, 15 DAA, visual score, read-out: Post-emergence herbicidal activity (percentage phytotoxicity) ECHCG; for pest or weed control at 250 g/ha: application rate 250 g/ha; for pest or weed control at 30 g/ha: application rate 30 g/ha
Method: as §1, §2, §3, §4

Setaria faberi (SETFA) [3] = experiment: as above; settings: 360 h, 15 DAA, visual score, read-out: Post-emergence herbicidal activity (percentage phytotoxicity) SETFA; for pest or weed control at 250 g/ha: application rate 250 g/ha; for pest or weed control at 30 g/ha: application rate 30 g/ha
Method: as §1, §2, §3, §4

[4] = system: Sorghum vulgare Pers. (SORVU); experiment: as above; settings: Sorghum bicolor, 360 h, 15 DAA, visual score, read-out: Post-emergence herbicidal activity (percentage phytotoxicity) SORVU; for pest or weed control at 250 g/ha: application rate 250 g/ha; for pest or weed control at 30 g/ha: application rate 30 g/ha
Method: as §1, §2, §3, §4

[5] = system: Panicum miliaceum (PANMI); experiment: as above; settings: 360 h, 15 DAA, visual score, read-out: Post-emergence herbicidal activity (percentage phytotoxicity) PANMI; for pest or weed control at 250 g/ha: application rate 250 g/ha; for pest or weed control at 30 g/ha: application rate 30 g/ha
Method: as §1, §2, §3, §4

[6] = system: Digitaria sanguinalis (DIGSA); experiment: Test 2 glasshouse assay (IF50 formulation, X-77), pre-emergence herbicidal activity; settings: 480 h, 250 g/ha, 20DAA, read-out: Percentage phytotoxicity DIGSA
Method: as §1, §2, §3, §4

[7] = system: Echinochloa crus-galli (ECHCG); experiment: as above; settings: 480 h, 250 g/ha, 20DAA, read-out: Percentage phytotoxicity ECHCG
Method: as §1, §2, §3, §4

Setaria faberi (SETFA) [8] = experiment: as above; settings: 480 h, 250 g/ha, 20DAA, read-out: Percentage phytotoxicity SETFA
Method: as §1, §2, §3, §4

[9] = system: Sorghum vulgare Pers. (SORVU); experiment: as above; settings: Sorghum bicolor, 480 h, 250 g/ha, 20DAA, read-out: Percentage phytotoxicity SORVU
Method: as §1, §2, §3, §4

[10] = system: Panicum miliaceum (PANMI); experiment: as above; settings: 480 h, 250 g/ha, 20DAA, read-out: Percentage phytotoxicity PANMI
Method: as §1, §2, §3, §4

[11] = system: Echinochloa crus-galli (ECHCG); experiment: Test 1 glasshouse assay, pre-emergence herbicidal activity; settings: 312 h, visual evaluation after 13 days, read-out: Percentage phytotoxicity ECHCG
Procedure, shortened: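 Seeds sown in standard soil were sprayed one day after sowing with active ingredient in acetone/water (50:50) plus 0.5% Tween 20. Plants grew in a glasshouse at 24/16° C day/night, 14 h light, 65% humidity, watered twice daily; phytotoxicity was scored visually after 13 days (0–100%).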

[12] = system: Alopecurus myosuroides (ALOMY); experiment: Test 2 glasshouse assay (IF50 formulation, X-77), post-emergence herbicidal activity; settings: 360 h, 15 DAA, visual score, read-out: Post-emergence herbicidal activity (percentage phytotoxicity) ALOMY; for pest or weed control at 250 g/ha: application rate 250 g/ha; for pest or weed control at 30 g/ha: application rate 30 g/ha
Method: as §1, §2, §3
Cool climate (“cool season”) grassy monocotyledonous weeds: Alopecurus myosuroides (ALOMY), Avena fatua (AVEFA), Lolium perenne (LOLPE).

Row | SMILES | pest or weed control at 250 g/ha [1] [%] | pest or weed control at 250 g/ha [2] [%] | pest or weed control at 250 g/ha (Setaria faberi (SETFA) [3]) [%] | pest or weed control at 250 g/ha [4] [%] | pest or weed control at 250 g/ha [5] [%] | pest or weed control at 250 g/ha [6] [%] | pest or weed control at 250 g/ha [7] [%] | pest or weed control at 250 g/ha (Setaria faberi (SETFA) [8]) [%] | pest or weed control at 250 g/ha [9] [%] | pest or weed control at 250 g/ha [10] [%] | pest or weed control at 250 g/ha [11] [%] | pest or weed control at 250 g/ha [12] [%] | further results
1 | C#CCC1CC(=O)C(c2c(F)cc(-c3ccc(Cl)cc3)cc2Cl)C1=O (stereo not drawn) [Compound A6, 2-[2-chloro-4-(4-chlorophenyl)-6-fluorophenyl]-4-prop-2-ynylcyclopentane-1,3-dione] | 100 | 100 | 100 | 100 | 100 | 20 | 50 | 0 | 40 | 0 | 100 | 100 | pest or weed control at 125 g/ha ([1]; application rate 125 g/ha): 100%; pest or weed control at 125 g/ha ([2]; application rate 125 g/ha): 100%; pest or weed control at 125 g/ha (Setaria faberi (SETFA) [3]; application rate 125 g/ha): 100%; pest or weed control at 125 g/ha ([4]; application rate 125 g/ha): 100%; pest or weed control at 125 g/ha ([5]; application rate 125 g/ha): 100%; pest or weed control at 125 g/ha ([12]; application rate 125 g/ha): 80%
2 | C#CCC1CC(=O)C(c2c(F)cc(-c3ccc(Cl)cn3)cc2Cl)C1=O (stereo not drawn) [Compound A8] | 100 | 100 | 100 | 100 | 100 | 80 | 60 | 70 | 80 | 90 | 100 | 80 | pest or weed control at 30 g/ha [1]: 90%; pest or weed control at 30 g/ha [2]: 70%; pest or weed control at 30 g/ha (Setaria faberi (SETFA) [3]): 90%; pest or weed control at 30 g/ha [4]: 100%; pest or weed control at 30 g/ha [5]: 100%; pest or weed control at 30 g/ha [12]: 50%
3 | C#CCC1CC(=O)C(c2c(Cl)cc(-c3ccc(Cl)cn3)cc2OC)C1=O (stereo not drawn) [Compound A10] | 100 | 100 | 100 | 100 | 100 | 100 | 100 | 100 | 100 | 100 | 100 | 100 | pest or weed control at 30 g/ha [1]: 100%; pest or weed control at 30 g/ha [2]: 100%; pest or weed control at 30 g/ha (Setaria faberi (SETFA) [3]): 100%; pest or weed control at 30 g/ha [4]: 100%; pest or weed control at 30 g/ha [5]: 100%; pest or weed control at 30 g/ha [12]: 50%
4 | C#CCC1CC(=O)C(c2cc(-c3ccc(Cl)cc3Cl)ccc2C)C1=O (stereo not drawn) [Compound A15] | 30 | 70 | 30 | 40 | 70 | 50 | 10 | 20 | 30 | 20 |  | 40 | 
5 | C#CCC1CC(=O)C(c2cc(-c3ncc(Cl)cc3F)ccc2C)C1=O (stereo not drawn) [Compound A18] | 50 | 90 | 70 | 70 | 60 |  |  |  |  |  | 60 | 30 | 
6 | C#CCC1CC(=O)C(c2cc(-c3ncc(Cl)cn3)ccc2C)C1=O (stereo not drawn) [Compound A19] | 70 | 70 | 60 | 70 | 70 |  |  |  |  |  | 50 | 40 | 
7 | C#CCC1CC(=O)C(c2c(F)cc(-c3ccc(F)cc3)cc2OC)C1=O (stereo not drawn) [Compound A20, 2-[2-fluoro-4-(4-fluorophenyl)-6-methoxyphenyl]-4-prop-2-ynylcyclopentane-1,3-dione] |  |  |  |  |  |  |  |  |  |  | 100 |  | 
8 | C#CCC1CC(=O)C(c2c(F)cc(-c3ccc(F)cc3F)cc2OC)C1=O (stereo not drawn) [Compound A21] |  |  |  |  |  |  |  |  |  |  | 90 |  | 
